According to patent US20070015771A1, “Lonidamine analogs” (Threshold pharmaceuticals, Inc., priority 2004, published 2007):
Like-named read-outs stand apart in the source and are kept apart here.

How the values were obtained:
H460 cells = assay: Antiproliferation assay (Alamar Blue), H460 cells; assay type: cell-based
Protocol: To determine the effect of lonidamine and analogs thereof on cell proliferation, the antiproliferative activity of these compounds was tested in a multi-well Alamar Blue based assay (at 2 h and 3 days). Cell growth in the presence and absence of the test compound (compounds 1-22) was compared, as measured by a fluorescence plate reader at excitation 550 nm and emission 590 nm (see Biosource International Inc., Tech Application Notes, Use of Alamar Blue in the measurement of Cell Viability and Toxicity, Determining IC50). H460 cells (ATCC HTB-177 ([…]), 4,000 cells/well/200 μl) and LNCap cells (ATCC CRL-1740, 6,000 cells/well/200 μl) were seeded in a 96 well plate in RPMI medium (Invitrogen Corporation, Carlsbad, Calif.). After 24 hours, these plates were divided into 3 groups—Control group, 2 h treatment group and 3 day treatment group. In the 2 h treatment group, after 2 h the cells were rinsed to remove the test compound and incubated for 3 days, followed by staining with AlamarBlue. The cells in the 3 day treatment group were incubated for 3 days, followed by staining with AlamarBlue. In the Control group, AlamarBlue was added to the plate at (i) day 0 and (ii) day 3 and measured to establish the control reading.

DU-145 cells = assay: Antiproliferation assay 3 days, DU-145 cells; assay type: cell-based; conditions: 3 day treatment; read-out: Du-145 cell line IC50
Protocol: (§1) To determine the effect of lonidamine analogs thereof on cell proliferation, the antiproliferative activity of these compounds was tested in a multi-well Alamar Blue based assay (at 3 days). Cell growth in the presence and absence of the test compound was compared, as measured by a fluoresence plate reader at excitation 550 nm and emission 590 nm (see Biosource International Inc., Tech Application Notes, Use of Alamar Blue in the measurement of Cell Viability and Toxity, Determining IC50). The following cell lines were tested: PWR-1E cells ((ATCC CRL-11611), 3500 cells/well/200 μl in Keratinocyte SFM medium (Gibco Products, Invitrogen Corporation, Carlsbad, Calif.)); DU-145 cells ((ATCC HTB-81), 4000 cells/well/200 μl in MEM Eagles medium (ATCC, Manassas, Va.)); PC3 cells ((ATCC CRL-1435), 4000 cells/200 μl in Modified HAM's F12 medium (ATCC, Manassas, Va.)); PNt2 cells ((Sigma-Aldrich, 95012613-1 VL), 4000 cells/well/200 μl in RPMI medium (Gibco Products, Invitrogen Corporation, Carlsbad, Calif.), BPH-1 ((DSMZ ACC-143), 4000 cells/well/200 μl in RPMI medium (Gibco Products, Invitrogen Corporation, Carlsbad, Calif), and NCI-H460 cells ((ATCC HTB-177), 4000 cells/well/200 μl in RPMI medium (Gibco Products, Invitrogen Corporation, Carlsbad, Calif.)). The cells were seeded in a 96 well plate in a medium specified above. After 24 hours, these plates were divided into 2 groups—Control group and 3 day treatment group. A test compound was added to each plate in the treatment groups at concentrations of […] as tabulated in Table 1 (in 2 μl 1 of 100% DMSO, final DMSO concentration 1% in all wells). For NCI-H460 cells, test compounds were added to each plate in the treatment groups at concentrations of 600, 300, 100, 30, 10, 3, and 1 μM (in 2 μl of 100% DMSO, final DMSO concentration 1% in all wells). The cells in the 3 day treatment group were incubated for 3 days, followed by staining with AlamarBlue. In the Control group, AlamarBlue was added to the plate at (i) day 0 and (ii) day 3 and measured to establish the control reading. […] For the NCI-H460 cells, the capacity of the cells to proliferate was measured 5 hours after addition of AlamarBlue using the same fluorescence plate reader as stated above.

BPH-1 = assay: Antiproliferation assay 3 days, BPH-1 cells; assay type: cell-based; conditions: 3 day treatment; read-out: BPH-1 cell line IC50
Protocol: as §1

PWR-1E cells = assay: BrdU-TUNEL apoptosis assay; assay type: cell-based; conditions: for % Non-apoptotic cells / % apoptotic cells: PWR-1E cells, 24 h
Protocol: The effect of compound 1 (as described in Example 1 above) on apoptosis was determined as follows. PWR-1E cells (2×10^5 cells/ml/well) were seeded in a 24 well plate. The culture media were removed after 24 h, the cells were rinsed with PBS buffer (200 μL) and incubated (5 min, 37° C.) with a solution of Guava Viacount CDR in PBS (1:3 v/v). Media (750 μL) containing at least 5% FBS was added to each well, the cells released by repeated pipeting, centrifuged, and the supernatant aspirated. The cells were resuspended in PBS buffer (150 μL) and fixed by incubating (60 min, 4° C.) with 4% paraformaldehyde in PBS. The cells were centrifuged, and the supernatant removed to a final volume of 15 μL. The cell pellets were resuspended, followed by dropwise addition of 200 μl of ice-cold ethanol (70%), and the cells incubated at −20° C. at least for 2 hr. The cells were centrifuged, the supernatant removed, washed, and incubated with the DNA labeling mix (37° C., 60 min). The cells were washed, incubated (30 min) with anti-BrdU staining mix, washed again and analyzed on a Guava PCA-96 system (Guava Technologies, 25801 Industrial Boulevard, Hayward Calif. 94545-2991, USA).

mouse prostate = assay: Mouse study, 5 days oral, prostate weight and histomorphology; assay type: in vivo; conditions: C57B1/6J mice
Protocol: The effect of Compound 1 on the mouse prostate was determined as follows. Compound 1 was orally administered daily for 5 days to male, C57B1/6J mice, (n=5, 6-8 weeks old) 1 at 2, 5, and 20 mg/kg (as a 1% carboxymethylcellulose formulation). The control mice received an equal amount of the vehicle (carboxymethylcellulose). On day 6 the mice were sacrificed and the entire prostate and the individual lobes (e.g., the dorsal lobe and the ventral lobe) were weighed to measure absolute weights. Relative weights of prostate and individual lobes were calculated by dividing the absolute weight by the total weight of the mouse. Relative weights of the entire prostate, the dorsal prostate, and the ventral prostate were calculated by dividing the absolute weight by the total weight of the mouse. Both the absolute entire prostate and relative entire prostate weights reduced in the 5 and 20 mg/kg groups compared to the control group. The histomorphology of the prostate was also analyzed and compared to that of the control or untreated prostate as illustrated in FIGS. 1-3, showing […].

[1] = oral daily for 5 days, 5 and 20 mg/kg groups vs control

## O=C(NO)c1nn(Cc2ccc(Cl)cc2Cl)c2ccccc12 [Compound 1]
H460 cells; 3 day treatment, read-out: GI50 H460 cell 3 days
  GI50: 15.8 µM
H460 cells; read-out: GI50 H460 cell 2 hr, 2 h treatment then 3 days incubation
  GI50: 50 µM
DU-145 cells
  IC50: 11 µM
BPH-1
  IC50: 17.5 µM
PWR-1E cells; PWR1E cells
  apoptosis in PWR1E cells: induces apoptosis
PWR-1E cells; 3.1 μM
  % Non-apoptotic cells: 90%
  % apoptotic cells: 10%
PWR-1E cells; 6.2 μM
  % Non-apoptotic cells: 88%
  % apoptotic cells: 12%
PWR-1E cells; 12.5 μM
  % Non-apoptotic cells: 78%
  % apoptotic cells: 22%
PWR-1E cells; 25 μM
  % Non-apoptotic cells: 48%
  % apoptotic cells: 52%
Mouse prostate; oral daily for 5 days, 2, 5, 20 mg/kg
  histomorphology of the prostate: dose-dependent disorganization of the epithelial cells
Mouse prostate; [1]
  absolute entire prostate weight: reduced
  relative entire prostate weight: reduced
